{"source": "paper PMC11879280", "about": "“Antimicrobial activity of peptoids against Metallo-β-lactamase-producing Klebsiella pneumoniae, Acinetobacter baumannii, Pseudomonas aeruginosa, and other WHO priority pathogens, including Candida auris” (Journal of Applied Microbiology, 2025)", "key": {"MBL-producing bacteria": {"system": "MBL-producing bacteria", "assay": "Geometric mean MIC, therapeutic index and selectivity ratio, MBL-producing bacteria", "format": "cell-based", "experimental": "(§1) Briefly, bacteria were suspended in cation-adjusted Mueller–Hinton broth (CAMHB; Oxoid, UK) for antibiotics, or MHB (Oxoid, UK) for peptidomimetics to obtain 5 × 10^5 colony forming unit (CFU) ml^−1. […] Positive controls contained only microbes, and blanks contained only media. Microbial suspensions (100 µl) were added to wells, plates wrapped, and incubated at 37°C, 120 rpm for 16–20 h. After incubation, suspensions were removed, log10 diluted, and plated on Trypticase Soya Agar with phosphatidylcholine and Tween 80 to determine minimum bactericidal or fungicidal concentration (MBC or MFC). […] Geometric mean MIC of the peptoids were calculated to evaluate the broad overview of antimicrobial activity across the pathogens.\nThe test was performed as per the manufacturer’s instructions. Briefly, the strips were applied to a lawn culture of bacteria maintained at 1.5 × 10^8 CFU ml^−1 on Mueller–Hinton agar (Oxoid, UK) and incubated for 20 h at 37°C.\n(§2) The therapeutic indices (TIs) of the compounds were calculated with the use of following formula: […]"}, "A. baumannii 005": {"system": "A. baumannii 005", "summary_of_the_method": "(§3)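 Cation-adjusted MHB for antibiotics, plain MHB for peptidomimetics; 5 × 10^5 CFU ml^−1; 16–20 h at 37°C, 120 rpm. Geometric mean MIC across pathogens calculated for peptoids.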"}, "En. cloacae 003": {"system": "En. cloacae 003", "summary_of_the_method": "as §3"}, "E. coli 0015": {"system": "E. coli 0015", "summary_of_the_method": "as §3"}, "S. aureus 105": {"system": "S. aureus 105", "summary_of_the_method": "as §3"}, "En. cloacae 005": {"system": "En. cloacae 005", "summary_of_the_method": "as §3"}, "P. aeruginosa 33": {"system": "P. aeruginosa 33", "summary_of_the_method": "as §3"}, "A. baumannii 007": {"system": "A. baumannii 007", "summary_of_the_method": "as §3"}, "E. coli 0010": {"system": "E. coli 0010", "summary_of_the_method": "as §3"}, "A. baumannii 006": {"system": "A. baumannii 006", "summary_of_the_method": "as §3"}, "K. pneumoniae JIE4212": {"system": "K. pneumoniae JIE4212", "summary_of_the_method": "as §3"}, "E. coli 0011": {"system": "E. coli 0011", "summary_of_the_method": "as §3"}, "En. cloacae 001": {"system": "En. cloacae 001", "summary_of_the_method": "as §3"}, "P. aeruginosa 216": {"system": "P. aeruginosa 216", "summary_of_the_method": "as §3"}, "E. coli 005": {"system": "E. coli 005", "summary_of_the_method": "as §3"}, "S. aureus 04": {"system": "S. aureus 04", "conditions": "04", "summary_of_the_method": "as §3"}, "A. baumannii 008": {"system": "A. baumannii 008", "conditions": "008", "summary_of_the_method": "as §3"}, "[1]": {"system": "Enteroc. faecalis NCTC 13 379", "summary_of_the_method": "as §3"}, "C. auris strains": {"system": "C. auris strains", "conditions": "two C. auris strains", "experimental": "as §1, §2"}, "[2]": {"system": "horse red blood cells (RBCs)", "assay": "Haemolysis assay", "format": "cell-based", "experimental": "The haemolytic activity of the peptidomimetics was performed to determine mammalian cell safety. This assay used horse red blood cells (RBCs) (Sigma–Aldrich, USA) as described previously (Willcox et al. [2008], Chongsiriwatana et al. [2017], Yasir et al. [2019b]). RBCs were washed three times with PBS at 470 g for 5 min. Peptoids (0.5–250 μg ml^−1) were prepared in PBS and added to washed RBCs, then incubated at 37°C for 4 h. After incubation, cells were centrifuged at 1057 g for 10 min, and the supernatant’s OD at 540 nm was measured for lysis. PBS-only RBCs served as the negative control (no haemolysis), and Milli-Q water-treated RBCs as the positive control (100% lysis). Percent haemolysis was calculated as: (ODT − ODNC)/(ODPC − ODNC) × 100, where ODT, ODNC, and ODPC are the absorbances of the test, negative, and positive controls, respectively. This experiment was performed in triplicate."}}, "note": "Where two headings read alike, the source gives them in different places. Square brackets hold non-standard residues; d marks the D form. Peptide text beside a SMILES is read from it. Nspe(4-Br) = C[C@H](NCC(=O)O)c1ccc(Br)cc1; Nspe = C[C@H](NCC(=O)O)c1ccccc1; Nlys = NCCCCNCC(=O)O", "data": [{"smiles": "C[C@@H](c1ccc(Br)cc1)N(CC(N)=O)C(=O)CN(C(=O)CN(CCCCN)C(=O)CN(C(=O)CN(C(=O)CNCCCCN)[C@@H](C)c1ccccc1)[C@@H](C)c1ccc(Br)cc1)[C@@H](C)c1ccccc1", "note": "[TM2] (H-[Nlys][Nspe][Nspe(4-Br)][Nlys][Nspe][Nspe(4-Br)]-NH2)", "values": [{"measurement": "Geometric mean MICMBL", "setting": "MBL-producing bacteria", "value": 28.7, "unit": "µg/mL"}, {"measurement": "MIC of peptidomimetics", "setting": "A. baumannii 005; 005", "value": 7.2, "unit": "µM"}, {"measurement": "MIC of peptidomimetics", "setting": "A. baumannii 005; A. baumannii 005, MHB (melimine/Mel4 with 0.2% BSA, 0.01% acetic acid), mean MIC", "value": 7.8, "unit": "µg/mL"}, {"measurement": "MIC of peptidomimetics", "setting": "En. cloacae 003", "value": 29.0, "unit": "µM"}, {"measurement": "MIC of peptidomimetics", "setting": "En. cloacae 003; En. cloacae 003, MHB (melimine/Mel4 with 0.2% BSA, 0.01% acetic acid), mean MIC", "value": 31.3, "unit": "µg/mL"}, {"measurement": "MIC of peptidomimetics", "setting": "E. coli 0015; 0015", "value": 58.1, "unit": "µM"}, {"measurement": "MIC of peptidomimetics", "setting": "E. coli 0015; E. coli 0015, MHB (melimine/Mel4 with 0.2% BSA, 0.01% acetic acid), mean MIC", "value": 62.5, "unit": "µg/mL"}, {"measurement": "MIC of peptidomimetics", "setting": "S. aureus 105; 105", "value": 7.2, "unit": "µM"}, {"measurement": "MIC of peptidomimetics", "setting": "S. aureus 105; S. aureus 105, MHB (melimine/Mel4 with 0.2% BSA, 0.01% acetic acid), mean MIC", "value": 7.8, "unit": "µg/mL"}, {"measurement": "MIC of peptidomimetics", "setting": "En. cloacae 005", "value": 15.6, "unit": "µg/mL"}, {"measurement": "MIC of peptidomimetics", "setting": "P. aeruginosa 33; 33", "value": 29.0, "unit": "µM"}, {"measurement": "MIC of peptidomimetics", "setting": "P. aeruginosa 33; P. aeruginosa 33, MHB (melimine/Mel4 with 0.2% BSA, 0.01% acetic acid), mean MIC", "value": 31.3, "unit": "µg/mL"}, {"measurement": "MIC of peptidomimetics", "setting": "A. baumannii 007; 007", "value": 29.0, "unit": "µM"}, {"measurement": "MIC of peptidomimetics", "setting": "A. baumannii 007; A. baumannii 007, MHB (melimine/Mel4 with 0.2% BSA, 0.01% acetic acid), mean MIC", "value": 31.3, "unit": "µg/mL"}, {"measurement": "MIC of peptidomimetics", "setting": "E. coli 0010; 0010", "value": 58.1, "unit": "µM"}, {"measurement": "MIC of peptidomimetics", "setting": "E. coli 0010; E. coli 0010, MHB (melimine/Mel4 with 0.2% BSA, 0.01% acetic acid), mean MIC", "value": 62.5, "unit": "µg/mL"}, {"measurement": "MIC of peptidomimetics", "setting": "A. baumannii 006; 006", "value": 7.2, "unit": "µM"}, {"measurement": "MIC of peptidomimetics", "setting": "A. baumannii 006; A. baumannii 006, MHB (melimine/Mel4 with 0.2% BSA, 0.01% acetic acid), mean MIC", "value": 7.8, "unit": "µg/mL"}, {"measurement": "MIC of peptidomimetics", "setting": "K. pneumoniae JIE4212; JIE4212", "value": 58.1, "unit": "µM"}, {"measurement": "MIC of peptidomimetics", "setting": "K. pneumoniae JIE4212; K. pneumoniae JIE4212, MHB (melimine/Mel4 with 0.2% BSA, 0.01% acetic acid), mean MIC", "value": 62.5, "unit": "µg/mL"}, {"measurement": "MIC of peptidomimetics", "setting": "E. coli 0011; 0011", "value": 58.1, "unit": "µM"}, {"measurement": "MIC of peptidomimetics", "setting": "E. coli 0011; E. coli 0011, MHB (melimine/Mel4 with 0.2% BSA, 0.01% acetic acid), mean MIC", "value": 62.5, "unit": "µg/mL"}, {"measurement": "MIC of peptidomimetics", "setting": "En. cloacae 001", "value": 29.0, "unit": "µM"}, {"measurement": "MIC of peptidomimetics", "setting": "En. cloacae 001; En. cloacae 001, MHB (melimine/Mel4 with 0.2% BSA, 0.01% acetic acid), mean MIC", "value": 31.3, "unit": "µg/mL"}, {"measurement": "MIC of peptidomimetics", "setting": "P. aeruginosa 216; 216", "value": 14.5, "unit": "µM"}, {"measurement": "MIC of peptidomimetics", "setting": "P. aeruginosa 216; P. aeruginosa 216, MHB (melimine/Mel4 with 0.2% BSA, 0.01% acetic acid), mean MIC", "value": 15.6, "unit": "µg/mL"}, {"measurement": "MIC of peptidomimetics", "setting": "E. coli 005; 005", "value": 116.2, "unit": "µM"}, {"measurement": "MIC of peptidomimetics", "setting": "E. coli 005; E. coli 005, MHB (melimine/Mel4 with 0.2% BSA, 0.01% acetic acid), mean MIC", "value": 125, "unit": "µg/mL"}, {"measurement": "MIC of peptidomimetics", "setting": "S. aureus 04", "value": 3.9, "unit": "µg/mL"}, {"measurement": "MIC of peptidomimetics", "setting": "A. baumannii 008", "value": 15.6, "unit": "µg/mL"}, {"measurement": "MIC of peptidomimetics", "setting": "[1]; Enteroc. faecalis NCTC 13 379, MHB (melimine/Mel4 with 0.2% BSA, 0.01% acetic acid), mean MIC", "value": 31.3, "unit": "µg/mL"}, {"measurement": "MIC of peptidomimetics", "setting": "[1]; NCTC 13", "value": 29.0, "unit": "µM"}, {"measurement": "Geometric mean MICCA", "setting": "C. auris strains", "value": 11.1, "unit": "µg/mL"}, {"measurement": "HD10 (10% haemolytic dose)", "setting": "[2]", "value": 18.6, "unit": "µmol/L"}, {"measurement": "HD50 (50% haemolytic dose)", "setting": "[2]", "value": 59.5, "unit": "µmol/L"}, {"measurement": "HD10 (10% haemolytic dose)", "setting": "[2]; red cells of horse, 4 h", "value": 20, "unit": "µg/mL"}, {"measurement": "HD50 (50% haemolytic dose)", "setting": "[2]; red cells of horse, 4 h", "value": 64, "unit": "µg/mL"}]}]}
